The test system of experiment [1] is serotonin ulcer. In words: Inhibitory activity on serotonin ulcer. Conditions: 30 min before serotonin 20 mg/kg s.c., rats. The experiment is classed as in vivo, SD-strain male rats. As to the method: Seven week-old SD-strain male rats (body weight 200 to 220 g) were fasted for 24 hours but water was provided freely, and then used in the following experiment. Each of the test compounds suspended in 0.5% CMC was administered to the rats either orally or intraperitoneally, and 30 minutes later, serotonin (serotonin creatinine sulfate) was subcutaneously administered to the rats in a dose of 20 mg/kg. Four hours later, the animals were sacrificed. The abdomen was cut open, and the stomach was taken out from each animal. 12 ml of 1% formalin was injected into the stomach to inflate it, and the stomach was further dipped for about 10 minutes in 1% formalin for fixation. Then, the stomach was cut open on the side of the lesser curvature, and spread on a glass plate. The area of ulcers generated in the glandular stomach was measured by using a solid microscope. The sum of the area of ulcer for each animal was used as the ulcer index. The ulcer inhibiting ratio of the test compound was calculated in accordance with the following equation. [formula] The control group was given 0.5% CMC and serotonin alone.

Experiment [2] deals with T1, plasmin (Homo sapiens, UniProt P00747).
T1 construct: fibrin clot lysis, native
T1 sequence (P00747 97-810): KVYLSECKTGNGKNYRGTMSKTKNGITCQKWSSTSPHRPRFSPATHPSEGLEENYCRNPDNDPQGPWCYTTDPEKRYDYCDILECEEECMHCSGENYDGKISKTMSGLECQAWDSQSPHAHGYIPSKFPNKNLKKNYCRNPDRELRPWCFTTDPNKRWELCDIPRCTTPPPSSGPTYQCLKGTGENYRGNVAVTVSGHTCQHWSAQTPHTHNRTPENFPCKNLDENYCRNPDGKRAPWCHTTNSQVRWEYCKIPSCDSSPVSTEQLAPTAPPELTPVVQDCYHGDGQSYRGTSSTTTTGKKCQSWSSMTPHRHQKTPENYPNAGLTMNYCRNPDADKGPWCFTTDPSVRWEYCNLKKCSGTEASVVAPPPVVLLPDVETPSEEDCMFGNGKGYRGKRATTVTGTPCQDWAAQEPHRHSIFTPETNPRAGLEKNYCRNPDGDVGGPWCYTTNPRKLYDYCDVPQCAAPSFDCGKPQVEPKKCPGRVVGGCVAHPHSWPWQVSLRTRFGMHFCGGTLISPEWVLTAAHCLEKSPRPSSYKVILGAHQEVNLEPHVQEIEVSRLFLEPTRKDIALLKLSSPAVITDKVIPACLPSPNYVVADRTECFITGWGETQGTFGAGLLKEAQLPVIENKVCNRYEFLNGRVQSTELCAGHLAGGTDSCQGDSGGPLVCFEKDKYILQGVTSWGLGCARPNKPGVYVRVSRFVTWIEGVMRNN
Nature of the experiment: Antiplasmin activity (clot lysis time, fibrinogen/urokinase/thrombin). The experiment is classed as biochemical. As to the method: Human fibrinogen was dissolved in a phosphate-buffered physiological saline (PBS) at a pH of 7.4 to prepare a 0.2% solution. Urokinase and thrombin were dissolved similarly in PBS to prepare a solution containing 120 units of urokinase and 50 units of thrombin per ml. […] Then, 0.1 ml of the urokinase-thrombin mixed solution was added, and a microchronometer was started. One minute after the starting of the microchronometer, a glass ball having a diameter of 8 mm was put on the coagulated surface, and the incubation was continued. The time which elapsed from the dissolution of the coagulated mass until the glass ball dropped onto the bottom of the test tube was measured. As a control, PBS alone was added.

For experiment [3], the system named is thrombin. Nature of the experiment: Antithrombin activity (recalcification time of plasma). Conditions: rabbit plasma.
Method: Citrated blood (3.5% sodium citrate: blood=1:9) was drawn from a white native male rabbit (3 to 3.5 kg in body weight). The blood was centrifuged at 3000 rpm to prepare plasma which was used in the following experiment. One milliliter of the plasma was put in a small test tube having an inside diameter of 12 mm, and incubated at 37° C. Then, 0.1 ml of each of the test compounds, dissolved in PBS, was added, and the mixture was further incubated at 37° C. for 2 minutes. Then, 0.2 ml of 0.02 M CaCl2 was added, and a microchronometer was started. While occasionally shaking the test tube, the time which elapsed until the plasma coagulated was measured. As a control, PBS was used.
For experiment [4], the system named is gastric secretion. Nature of the experiment: Inhibitory activity on gastric secretion (pylorus ligation). Type of experiment: in vivo, male rats. Conditions: for Amount of gastric juice: 4 hours after pylorus ligation, control 6.8 ± 0.6, in ml (unit assumed); for Acidity: control 109.1 ± 1.7. As for the experimental part: Seven week-old DS-strain male rats (body weight 200 to 220 g) were fasted for 24 hours but water was provided freely, and then used in the following experiment.
The rats were anesthetized with ether. The abdomen was cut open along the median line to expose the pylorus. Then, the pylorus was ligated. After ligation, each of the test compounds dissolved in physiological saline was intraperitoneally administered to the animals. The abdomen was sutured, and after confirming that the animals recovered from ether anesthesia, they were kept in a wire cage while being deprived of food and water. Four hours later, the animals were killed by using ether. The abdomen was again cut open, and the stomach was removed. The gastric juice was collected, and its volume and acidity was measured. The acidity of the gastric juice was determined by titrating with 0.05 N sodium hydroxide using phenolphthalein as an indicator, and calculating the amount of sodium hydroxide required to neutralize the gastric juice which is estimated as the acidity of the gastric juice.
The control group was given physiological saline alone.
For the method of studying the inhibitory activity on the gastiic secretion, reference may be made to H. Shay, S. A. Komoroe, S. S. Fels, M. Meraze, M. Gruestein and H. Siplet: Gastroent., 5, 43 (1945), and M. L. Anson: J. Gen, Physiol., 21, 79 (1938).

The mark [5] stands for this setting: 10^-3 M, first series, control 391.7 ± 16.1.
Where [6] appears, read: 10^-4 M, first series, control 391.7 ± 16.1.
[7] abbreviates: 5 × 10^-3 M, second series, control 103.3 ± 7.6.
The mark [8] stands for this setting: 5 × 10^-4 M, second series, control 103.3 ± 7.6.

Consider `Cl.NC[C@H]1CC[C@H](C(O)c2ccc(CCC(=O)O)cc2)CC1` (relative stereo) [trans (307) hydrochloride, 3-[p-(trans-4-aminomethylcyclohexylhydroxymethyl)phenyl]propionic acid hydrochloride], for which the Ulcer inhibiting ratio in experiment [1] (100 mg/kg intraperitoneal) worked out at 68.7%. Also, the figures for the Clot lysis time in experiment [2] (setting [5]) and in experiment [2] (setting [6]) were 546.7 s and 411.7 s, respectively. Also, the Recalcification time in experiment [3] (setting [7]) was 80.7 s; in experiment [3] (setting [8]), 104.0 s.
Regarding `NCC1CCC(C(=O)Oc2ccc(CCC(=O)O)cc2)CC1` (centres unmarked) [drawing 60, reference compound], the Recalcification time turned out to be 144.0 ± 2.6 s in experiment [3] (5 × 10^-5 M, second series, control 103.3 ± 7.6) and 114.7 ± 2.5 s in experiment [3] (5 × 10^-6 M, second series, control 103.3 ± 7.6).
On to `NCC1CCC(C(=O)Oc2ccc(CCC(=O)O)cc2)CC1` (centres unmarked) [drawing 52, reference compound], for which, in experiment [4] (200 mg/kg i.p.), the “Inhibition ratio (acidity)” value came to 52.5%, the “Inhibition ratio (amount of gastric juice)” value is reported as 72.1%, the “Amount of gastric juice” value is listed as 1.9 ± 0.6 and the Acidity amounted to 51.8 ± 10.0 μeq./ml. In experiment [4] (400 mg/kg i.p.), the “Inhibition ratio (acidity)” value is on record as 70.3%, the “Inhibition ratio (amount of gastric juice)” value stood at 86.8%, the “Amount of gastric juice” value came to 0.9 ± 0.2 and the Acidity is on record as 32.4 ± 2.4 μeq./ml.
As for `NCC1CCC(C(=O)Oc2ccc(CCC(=O)O)cc2)CC1` (centres unmarked) [drawing 54, reference compound], the Clot lysis time in experiment [2] (setting [5]) was more than 1800 s; in experiment [2] (setting [6]) it was more than 1800 s; in experiment [2] (10^-5 M, first series, control 391.7 ± 16.1), 1045.0 ± 13.2 s; in experiment [2] (10^-6 M, first series, control 391.7 ± 16.1), 441.7 ± 21.8 s.
With `Cl.NCCCCCC(=O)c1ccc(CCC(=O)O)cc1` [(102) hydrochloride, 3-[p-(ε-aminocaproyl)phenyl]propionic acid hydrochloride], the Ulcer inhibiting ratio in experiment [1] (100 mg/kg intraperitoneal) worked out at 76.2%. Also, the Clot lysis time in experiment [2] (setting [5]) was determined as 476.7 s; in experiment [2] (setting [6]), 423.3 s. Further, the results for the Recalcification time in experiment [3] (setting [7]) and in experiment [3] (setting [8]) were 67.0 s and 98.3 s, respectively.
Consider `NCC1CCC(C(=O)Oc2ccc(CCC(=O)O)cc2)CC1` (centres unmarked) [drawing 47, reference compound], for which the Ulcer inhibiting ratio in experiment [1] (100 mg/kg oral) was found to be 17.5%; in experiment [1] (300 mg/kg oral), 73.8%.
Consider `NCC1CCC(C(=O)Oc2ccc(CCC(=O)O)cc2)CC1` (centres unmarked) [drawing 56, reference compound], for which the Clot lysis time in experiment [2] (10^-5 M, second series, control 556.7 ± 12.6) came out at 1398 ± 53.0 s; in experiment [2] (10^-6 M, second series, control 556.7 ± 12.6), 600.0 ± 37.7 s.
Turning to `NCC1CCC(C(=O)Oc2ccc(CCC(=O)O)cc2)CC1` (centres unmarked) [drawing 58, reference compound], the Recalcification time in experiment [3] (5 × 10^-4 M, first series, […]) turned out to be 122.7 ± 2.5 s; in experiment [3] (5 × 10^-5 M, first series, […]), 115.3 ± 1.2 s.
In the case of `Cl.NCc1ccc(C(=O)c2ccc(CCC(=O)O)cc2)cc1` [(112) hydrochloride, 3-[p-(4-aminomethylbenzoyl)phenyl]propionic acid hydrochloride], the Ulcer inhibiting ratio in experiment [1] (200 mg/kg oral) is 95.6%.
On to `NCCCCCC(O)c1ccc(CCC(=O)O)cc1` (centres unmarked) [(302), 3-[p-(6-amino-1-hydroxyhex-1-yl)phenyl]-propionic acid], for which the Ulcer inhibiting ratio in experiment [1] (100 mg/kg oral) is 68.1%. Moreover, the Clot lysis time is 736.7 s in experiment [2] (10^-3 M, second series, control 556.7 ± 12.6) and 521.7 s in experiment [2] (10^-4 M, second series, control 556.7 ± 12.6). In addition, in experiment [3] (setting [7]), the Recalcification time worked out at 82.7 s.

The values are drawn from US4402975A, “Aminocarboxylic acids, amino alcohols, or the derivatives thereof, processes for production thereof, and pharmaceutical uses thereof” (Teijin Limited, priority 1980, dated 1983).
